Counter-ions that a name gives are not always drawn.
Columns and labels:
[1] = absorbability (bioavailability) of oral formulations in a dog; settings: in vivo, during fasting
Source text: (§1) On the other hand, the present inventors have heretofore conducted various studies on oral formulations of 4-bromo-6-[3-(4-chlorophenyl)propoxy]-5-(3-pyridylmethylamino)-3(2H)-pyridazinone (hereinafter referred to simply as Compound A) or its salt.

[2] = solubility in water as a function of pH; type: physicochemical
Source text: as §1

[3] = elution test (paddle method, Japanese Pharmacopoeia Disintegration Test Solutions 1 and 2); type: physicochemical
Experimental: The test conditions are as follows. Test solutions: Japanese Pharmacopoeia Disintegration Test Solution 1 (pH 1.2) 900 mL, Japanese Pharmacopoeia Disintegration Test Solution 2 900 mL (pH 6.8)+0.1% Tween 80 Paddle rotational speed: 50 rpm Liquid temperature: 37° C.

bioavailability [1]	solubility in water ([2]; in the vicinity of the pH in the intestine)	difference in the elution rate between Solution 1 (pH 1.2) and Solution 2 (pH 6.8) containing 0.1% Tween 80 ([3]; 900 mL, 37° C., paddle 50 rpm)	elution rate ([3]; Japanese Pharmacopoeia Disintegration Test Solution 2 (pH 6.8) + 0.1% Tween 80, after 6 hours, 37° C., paddle 50 rpm)	solubility indicated by the elution test ([3]; in the vicinity of the pH in the intestine (Solution 2 + 0.1% Tween 80))	Structure (SMILES)	solubility in water, dependence on pH ([2]; boundary in the vicinity of pH4.0)
~10%	hardly soluble in water	–	–	–	O=c1[nH]nc(OCCCc2ccc(Cl)cc2)c(NCc2cccnc2)c1Br [Compound A, 4-bromo-6-[3-(4-chlorophenyl)propoxy]-5-(3-pyridylmethylamino)-3(2H)-pyridazinone]	decreases in the vicinity of pH4.0 as a boundary
–	–	substantial difference	< 20%	hardly soluble	O=c1[nH]nc(OCCCc2ccc(Cl)cc2)c(NCc2cccnc2)c1Br [hydrochloride of Compound A, 4-bromo-6-[3-(4-chlorophenyl)propoxy]-5-(3-pyridylmethylamino)-3(2H)-pyridazinone]	–
